From paper PMC8933379, “Evaluation of the absolute oral bioavailability of the anaplastic lymphoma kinase/c-ROS oncogene 1 kinase inhibitor lorlatinib in healthy participants” (Cancer Chemotherapy and Pharmacology, 2021)
In brackets after ≈: the same amount, converted by molar mass. Entries after “also recorded” stand apart in the source; their conditions may differ. Like-named read-outs stand apart in the source and are kept apart here.

Legend:
[1] = used to estimate hepatic blood clearance; no reference given; cited from earlier work
[2] = parameters: method as in PMID 32441835; conditions: cited from earlier work; for Total drug-related radioactivity (parent plus metabolites) recovered in urine: depends on radioactivity placement on the molecule
[3] = parameters: method as in PMID 24819116; conditions: in vitro; cited from earlier work
[4] = cited from earlier work; for Mean half-life: previous drug interaction studies
[5] = Safety evaluation (adverse events) in the crossover study
Procedure: Safety assessments were performed at screening, during the study, and at study completion, clinic discharge, or early termination. Safety assessments included physical examinations, 12‐lead ECGs, vital signs, and clinical laboratory evaluations. All adverse events (AEs) and concomitant treatments were monitored and recorded throughout the study. AEs were reported using NCI CTCAE terminology.

[6] = rats; animal studies, no reference given; cited from earlier work
[7] = dogs; animal studies, no reference given; cited from earlier work
[8] = cited from earlier work; for Mean half-life: previous drug interaction studies; remark: listed apart in the source
[9] = Solubility in aqueous media; format: physicochemical
[10] = 100 mg single oral dose of [14C]lorlatinib, healthy participants

C[C@H]1Oc2cc(cnc2N)-c2c(nn(C)c2C#N)CN(C)C(=O)c2ccc(F)cc21 [Lorlatinib, (10R)-7-amino-12-fluoro-2,10,16-trimethyl-15-oxo-10,15,16,17-tetrahydro-2H-8,4-(metheno)pyrazolo[4,3-h][2,5,11]-benzoxadiazacyclotetradecine-3-carbonitrile]
Blood-to-plasma partitioning ratio [1]: 0.985
Unchanged lorlatinib recovered in faeces [2, 10]: ~ 9%
Unchanged lorlatinib recovered in urine [2, 10]: < 1%
Total drug-related radioactivity (parent plus metabolites) recovered in urine ([2]; first of two values): 48%
Total drug-related radioactivity (parent plus metabolites) recovered in urine ([2]; second of two values): 28%
Permeability [3]: highly permeable
AUCinf increase ([4]; co-administered with itraconazole): 42%
Mean half-life ([4]; lorlatinib alone, itraconazole study): 23 h
Mean half-life ([4]; with the inhibitor itraconazole): 30 h
Tolerability ([5]; 50 mg IV dose and 100 mg single oral dose, healthy participants): generally well-tolerated
Number of TEAEs (treatment-emergent adverse events) ([5]; 50 mg IV, n = 11): 8
Number of TRAEs (treatment-related adverse events) ([5]; 50 mg IV, n = 11): 6
Number of participants who reported AEs ([5]; 50 mg IV, n = 11): 4
Participants with AEs: Abdominal discomfort, all causality ([5]; 50 mg IV, n = 11): 0
Participants with AEs: Contusion, TRAE ([5]; 50 mg IV, n = 11): 0
Participants with AEs: Contusion, all causality ([5]; 50 mg IV, n = 11): 1
Participants with AEs: Dizziness, TRAE ([5]; 50 mg IV, n = 11): 1 (1)
Participants with AEs: Dizziness, all causality ([5]; 50 mg IV, n = 11): 1 (1)
Participants with AEs: Dysuria, all causality ([5]; 50 mg IV, n = 11): 0
Participants with AEs: Eye disorders, all causality ([5]; 50 mg IV, n = 11): 0
Participants with AEs: Gastrointestinal disorders, all causality ([5]; 50 mg IV, n = 11): 0
Participants with AEs: General disorders and administration side conditions, all causality ([5]; 50 mg IV, n = 11): 0
Participants with AEs: Headache, TRAE ([5]; 50 mg IV, n = 11): 2 (2)
Participants with AEs: Headache, all causality ([5]; 50 mg IV, n = 11): 2 (2)
Participants with AEs: Injury, poisoning and procedural complications, TRAE ([5]; 50 mg IV, n = 11): 0
Participants with AEs: Injury, poisoning and procedural complications, all causality ([5]; 50 mg IV, n = 11): 1
Participants with AEs: Investigations, TRAE ([5]; 50 mg IV, n = 11): 1 (1)
Participants with AEs: Investigations, all causality ([5]; 50 mg IV, n = 11): 1 (1)
Participants with AEs: Mental impairment, all causality ([5]; 50 mg IV, n = 11): 0
Participants with AEs: Nausea, all causality ([5]; 50 mg IV, n = 11): 0
Participants with AEs: Nervous system disorders, TRAE ([5]; 50 mg IV, n = 11): 2 (2)
Participants with AEs: Nervous system disorders, all causality ([5]; 50 mg IV, n = 11): 2 (2)
Participants with AEs: Nervousness, TRAE ([5]; 50 mg IV, n = 11): 0
Participants with AEs: Nervousness, all causality ([5]; 50 mg IV, n = 11): 1
Participants with AEs: Paraesthesia, TRAE ([5]; 50 mg IV, n = 11): 1 (1)
Participants with AEs: Paraesthesia, all causality ([5]; 50 mg IV, n = 11): 1 (1)
Participants with AEs: Photophobia, all causality ([5]; 50 mg IV, n = 11): 0
Participants with AEs: Psychiatric disorders, TRAE ([5]; 50 mg IV, n = 11): 0
Participants with AEs: Psychiatric disorders, all causality ([5]; 50 mg IV, n = 11): 1
Participants with AEs: Renal and urinary disorders, all causality ([5]; 50 mg IV, n = 11): 0
Participants with AEs: Somnolence, all causality ([5]; 50 mg IV, n = 11): 0
Participants with AEs: Transaminase increased, TRAE ([5]; 50 mg IV, n = 11): 1 (1)
Participants with AEs: Transaminase increased, all causality ([5]; 50 mg IV, n = 11): 1 (1)
Participants with AEs: Visual field defect, TRAE ([5]; 50 mg IV, n = 11): 1 (1)
Participants with AEs: Visual field defect, all causality ([5]; 50 mg IV, n = 11): 1 (1)
Deaths, serious AEs, severe AEs, discontinuations or dose reductions due to AEs ([5]; 100 mg oral and 50 mg IV, 11 healthy participants): No deaths, serious adverse events (AEs), or severe AEs were reported; also recorded: No deaths, serious AEs, severe AEs, permanent discontinuations, temporary discontinuations, or dose reductions due to AEs were reported
Number of TEAEs (treatment-emergent adverse events) ([5]; 100 mg oral tablets, n = 11): 12
Number of TRAEs (treatment-related adverse events) ([5]; 100 mg oral tablets, n = 11): 9
Participants with AEs: Abdominal discomfort, TRAE ([5]; 100 mg oral tablets, n = 11): 0
Participants with AEs: Abdominal discomfort, all causality ([5]; 100 mg oral tablets, n = 11): 1
Participants with AEs: Contusion, all causality ([5]; 100 mg oral tablets, n = 11): 0
Participants with AEs: Dizziness, TRAE ([5]; 100 mg oral tablets, n = 11): 1 (1)
Participants with AEs: Dizziness, all causality ([5]; 100 mg oral tablets, n = 11): 1 (1)
Participants with AEs: Dysuria, TRAE ([5]; 100 mg oral tablets, n = 11): 1 (1)
Participants with AEs: Dysuria, all causality ([5]; 100 mg oral tablets, n = 11): 1 (1)
Participants with AEs: Eye disorders, TRAE ([5]; 100 mg oral tablets, n = 11): 1 (1)
Participants with AEs: Eye disorders, all causality ([5]; 100 mg oral tablets, n = 11): 1 (1)
Participants with AEs: Gastrointestinal disorders, TRAE ([5]; 100 mg oral tablets, n = 11): 0
Participants with AEs: Gastrointestinal disorders, all causality ([5]; 100 mg oral tablets, n = 11): 2
Participants with AEs: General disorders and administration side conditions, TRAE ([5]; 100 mg oral tablets, n = 11): 0
Participants with AEs: General disorders and administration side conditions, all causality ([5]; 100 mg oral tablets, n = 11): 1
Participants with AEs: Headache, TRAE ([5]; 100 mg oral tablets, n = 11): 2 (2)
Participants with AEs: Headache, all causality ([5]; 100 mg oral tablets, n = 11): 2 (2)
Participants with AEs: Injury, poisoning and procedural complications, all causality ([5]; 100 mg oral tablets, n = 11): 0
Participants with AEs: Investigations, TRAE ([5]; 100 mg oral tablets, n = 11): 1 (1)
Participants with AEs: Investigations, all causality ([5]; 100 mg oral tablets, n = 11): 1 (1)
Participants with AEs: Mental impairment, TRAE ([5]; 100 mg oral tablets, n = 11): 1 (1)
Participants with AEs: Mental impairment, all causality ([5]; 100 mg oral tablets, n = 11): 1 (1)
Participants with AEs: Nausea, TRAE ([5]; 100 mg oral tablets, n = 11): 0
Participants with AEs: Nausea, all causality ([5]; 100 mg oral tablets, n = 11): 1
Participants with AEs: Nervous system disorders, TRAE ([5]; 100 mg oral tablets, n = 11): 3 (3)
Participants with AEs: Nervous system disorders, all causality ([5]; 100 mg oral tablets, n = 11): 3 (3)
Participants with AEs: Nervousness, all causality ([5]; 100 mg oral tablets, n = 11): 0
Participants with AEs: Paraesthesia, TRAE ([5]; 100 mg oral tablets, n = 11): 1 (1)
Participants with AEs: Paraesthesia, all causality ([5]; 100 mg oral tablets, n = 11): 1 (1)
Participants with AEs: Photophobia, TRAE ([5]; 100 mg oral tablets, n = 11): 1 (1)
Participants with AEs: Photophobia, all causality ([5]; 100 mg oral tablets, n = 11): 1 (1)
Participants with AEs: Psychiatric disorders, all causality ([5]; 100 mg oral tablets, n = 11): 0
Participants with AEs: Renal and urinary disorders, TRAE ([5]; 100 mg oral tablets, n = 11): 1 (1)
Participants with AEs: Renal and urinary disorders, all causality ([5]; 100 mg oral tablets, n = 11): 1 (1)
Participants with AEs: Somnolence, TRAE ([5]; 100 mg oral tablets, n = 11): 1 (1)
Participants with AEs: Somnolence, all causality ([5]; 100 mg oral tablets, n = 11): 1 (1)
Participants with AEs: Transaminase increased, TRAE ([5]; 100 mg oral tablets, n = 11): 1 (1)
Participants with AEs: Transaminase increased, all causality ([5]; 100 mg oral tablets, n = 11): 1 (1)
Participants with AEs: Visual field defect, all causality ([5]; 100 mg oral tablets, n = 11): 0
Number of participants who reported AEs ([5]; 100 mg oral, n = 11): 4
Absolute bioavailability [6]: approximately 100%
Absolute bioavailability [7]: ~97%
AUCinf reduction ([8]; co-administered with rifampicin): 85%
Mean half-life ([8]; lorlatinib alone, rifampin study): 29 h
Mean half-life ([8]; with the inducer rifampin): 18 h
solubility ([9]; pH 2.55): 32.4 mg/mL (≈ 79.7 mM)
solubility ([9]; pH 8.02): 0.17 mg/mL (≈ 0.418 mM)
